Data published in publication PMC9030223, “MBP-11901 Inhibits Tumor Growth of Hepatocellular Carcinoma through Multitargeted Inhibition of Receptor Tyrosine Kinases” (Cancers, 2022).

Columns and labels:
HepG2 cells = assay: Colony formation assay; format: cell-based, human
Method: HepG2 cells were seeded in a 6-well plate at a density of 2 × 10^4 cells/well and incubated for 24 h. Cells were treated with MBP-11901 and sorafenib for 2 h and media was changed with fresh one. Cells were incubated for 8 d and the medium was replaced once every 2–3 d. The medium was carefully removed, cells were washed with PBS, and fixed with 100% methanol for 30 min. After removing methanol, cells were stained with 0.5% (w/v) crystal violet for 30 min, and washed with tap water. The plate was dried at 25 °C and images were captured under a microscope (Nikon Eclipse Ts2, Tokyo, Japan). The stained area was automatically measured using ImageJ. This experiment was independently performed 3 times. The area of the colony was calculated as a percentage of the total area of the well.

[1] = system: cleaved PARP and active caspase-3 in HepG2 cells; assay: Western blot of apoptosis markers; format: cell-based, human; conditions: HepG2, time- and dose-dependent
Method: (§1) HepG2 cells were seeded in a 60 mm^2 culture dish at a density of 1.5 × 10^6 cells/dish and incubated for 24 h. Cells were treated with MBP-11901 for 24 h. Cells were harvested and protein extraction and Western blotting methods were performed as previously described. Membranes were incubated using the following diluted primary antibodies; PARP (1:1000 dilution), caspase-3 (1:1000 dilution), cleaved caspase-3 (1:1000 dilution), pFLT3 (1:500 dilution), Ras (1:1000 dilution), pc-Raf (1:1000 dilution), pMEK1/2 (1:1000 dilution), pERK1/2 (1:1000 dilution), pAKT (1:1000 dilution), pmTOR (1:1000 dilution), pVEGFR2 (1:1000 dilution), pPDGFR β (1:2000 dilution), and β-actin (1:1000 dilution) in Tris-HCl-based buffer containing 0.2% Tween-20 (T1027, Biosesang, Seongnam, Korea) (TBS-T; pH 7.5). Membranes were then incubated with horseradish-conjugated secondary antibodies (1:5000, Cell Signaling Technologies, Beverly, MA, USA) for 1 h at 25 °C. After washing with TBS-T, immunoreactive bands were visualized using the chemiluminescence western imaging system (Supernova-Q1800TM, Centronics, Daejeon, Korea). Band intensities were measured using ImageJ (Version 1.50i; US National Institutes of Health, Bethesda, MD, USA) and were normalized to β-actin.

[2] = system: phosphorylation of FLT3, VEGFR2, c-KIT, PDGFRβ and downstream signals in HepG2 cells; assay: Western blot of kinase phosphorylation; format: cell-based, human; conditions: HepG2, exposure 10 to 120 min, concentration-dependent
Method: as §1, with “Cells were treated with MBP-11901 for 24 h.” left out

[3] = system: HepG2-Luc orthotopic liver tumor; assay: Orthotopic HCC mouse model (HepG2-Luc bioluminescence); format: in vivo; conditions: 82 mg/kg oral once every other day
Method: The orthotopic HCC mouse model was established by placing a small piece of tumor-derived HepG2-Luc cells. Mice were randomly distributed into 3 groups upon bioluminescence signal reaching 10^7. The first group served as the saline control. The second and third groups were orally administered MBP-11901 (82 mg/kg) and Nexavar® (164 mg/kg) once every other day for 4 weeks. Tumor progression/regression was recorded once weekly by quantifying the bioluminescence signals. Experimental animals were sacrificed by CO2 inhalation.

FLT3(D835H) = target: T1, FLT3(D835H) (Homo sapiens, UniProt P36888, D835H); assay: KINOMEscan competition binding; conditions: 10000 nM; lower = stronger binding; read-out: % Control
T1 construct: purchased Eurofins DiscoverX Corporation
Method: (§2) The profiling of MBP-11901 against a panel of 468 kinases was performed by DiscoverX using KINOMEscan technology, an active-site-dependent competition-binding assay (Eurofins DiscoverX Corporation, San Diego, CA, USA). Binding constants (Kd) were calculated by DiscoverX using KdELECT technology, a widely used assay for comparing selectivity across the kinome. The DiscoverX platform reports the thermodynamic Kd to facilitate direct comparison of inhibitor affinity across the kinome, independent of ATP concentration.

FLT3(D835V) = target: T2, FLT3(D835V) (Homo sapiens, UniProt P36888, D835V); assay: KINOMEscan competition binding; conditions: 10000 nM; lower = stronger binding; read-out: % Control
T2 construct: purchased Eurofins DiscoverX Corporation
Method: as §2

FLT3(D835Y) = target: T3, FLT3(D835Y) (Homo sapiens, UniProt P36888, D835Y); assay: KINOMEscan competition binding; conditions: 10000 nM; lower = stronger binding; read-out: % Control
T3 construct: purchased Eurofins DiscoverX Corporation
Method: as §2

FLT3(K663Q) = target: T4, FLT3(K663Q) (Homo sapiens, UniProt P36888, K663Q); assay: KINOMEscan competition binding; conditions: 10000 nM; lower = stronger binding; read-out: % Control
T4 construct: purchased Eurofins DiscoverX Corporation
Method: as §2

FLT3(N841I) = target: T5, FLT3(N841I) (Homo sapiens, UniProt P36888, N841I); assay: KINOMEscan competition binding; conditions: 10000 nM; lower = stronger binding; read-out: % Control
T5 construct: purchased Eurofins DiscoverX Corporation
Method: as §2

FLT3- autoinhibited = target: T6, FLT3- autoinhibited (Homo sapiens, UniProt P36888); assay: KINOMEscan competition binding; conditions: 10000 nM; lower = stronger binding; read-out: % Control
T6 construct: purchased Eurofins DiscoverX Corporation
Method: as §2

NCC(N)C(=O)Nc1ccc(-c2nc3ccccc3s2)cc1 (stereo not shown) [MBP-11901]
colony formation (HepG2 cells; HepG2, 5 μM): significant reduction
colony growth (HepG2 cells; HepG2, high concentrations, compared with sorafenib): almost no colony growth was observed
levels of cleaved PARP and active caspase-3 [1]: high levels
kinase phosphorylation [2]: inhibited
level of GPT ([3]; 4 weeks): within the normal range
Ratio of average luminescence intensity to that of the saline group before administration ([3]; 0 w (immediately before administration)): 0.77 ± 0.8 fold
Ratio of average luminescence intensity to that of the saline group before administration ([3]; 1 w): 2.24 ± 2.9 fold
Ratio of average luminescence intensity to that of the saline group before administration ([3]; 2 w): 0.83 ± 1.8 fold
Ratio of average luminescence intensity to that of the saline group before administration ([3]; 3 w): 0.03 ± 0.1 fold
Ratio of average luminescence intensity to that of the saline group before administration ([3]; 4 w): 0.02 ± 0.0 fold
remaining binding at 10 µM (FLT3(D835H)): 33%
remaining binding at 10 µM (FLT3(D835V)): 1.6%
remaining binding at 10 µM (FLT3(D835Y)): 11%
remaining binding at 10 µM (FLT3(K663Q)): 7.5%
remaining binding at 10 µM (FLT3(N841I)): 20%
remaining binding at 10 µM (FLT3- autoinhibited): 19%
